The text below walks through data of patent US5475114A, “Pyrazolotriazole derivatives” (Yamanouchi Pharmaceutical Co., Ltd., priority 1991, dated 1995).

The test system of test [1] is AII receptor. Kind of test: in vivo: inhibitory effect on AII-caused pressor reaction in a spinal cord-broken rat. The following applies: dose which decreases 30 mm Hg of blood pressure after AII administration (100 ng/kg/min continuous iv). Here is the method:
The AII receptor-blocking activity of the compound of the present invention was measured based on its antagonistic effect (in vitro) on AII contraction of an excised rabbit aorta and its inhibitory effect (in vivo) on AII-caused pressor reaction in a spinal cord-broken rat. In vivo test: An in vivo test was carried out by inserting cannulae into an aorta and a vein of a spinal cord-broken rat under artificial respiration. […] Since a drug having AII receptor-blocking activity inhibits the AII-caused continuous blood pressure increase in a dose-dependent manner, the AII antagonistic function of the test drug was examined based on the decreasing width of blood pressure after administration of the test drug.

For test [2], the target named is T1, AII receptor (Oryctolagus cuniculus, UniProt P34976).
T1 construct: A portion of rabbit aorta was excised to prepare a spiral strip specimen; from tissue; host or cells: excised rabbit aorta, spiral strip
T1 sequence (P34976 1-359): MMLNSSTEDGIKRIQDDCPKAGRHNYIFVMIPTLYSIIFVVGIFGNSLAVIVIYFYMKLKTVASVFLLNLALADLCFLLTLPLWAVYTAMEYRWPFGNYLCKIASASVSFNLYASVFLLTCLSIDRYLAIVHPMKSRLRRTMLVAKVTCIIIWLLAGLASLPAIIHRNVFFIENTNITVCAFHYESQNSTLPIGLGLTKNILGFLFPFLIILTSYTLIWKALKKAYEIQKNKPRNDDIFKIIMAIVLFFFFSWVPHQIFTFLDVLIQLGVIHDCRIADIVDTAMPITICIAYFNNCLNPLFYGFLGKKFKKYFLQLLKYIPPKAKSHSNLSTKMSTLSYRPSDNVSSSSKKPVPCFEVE
As to the kind of experiment: in vitro: antagonistic effect on AII contraction of an excised rabbit aorta (spiral strip). It counts as cell-based. The following applies: for Kb: negative log of concentration required to shift AII dose-response curve to two times higher concentration, read-out: in vitro (pA2 value) (converted); for IC50: negative log of concentration required to inhibit 50% of the maximum AII contraction, read-out: in vitro (pD2 ' value) (converted). The procedure:
The AII receptor-blocking activity of the compound of the present invention was measured based on its antagonistic effect (in vitro) on AII contraction of an excised rabbit aorta and its inhibitory effect (in vivo) on AII-caused pressor reaction in a spinal cord-broken rat.
A portion of rabbit aorta was excised to prepare a spiral strip specimen which was subsequently hung in Krebs-Hensseleit solution. This spiral strip specimen causes a dose-dependent contraction when AII is added to the Krebs-Hensseleit solution. Since a drug having AII receptor-blocking activity causes shifting of the dose-response curve of the AII-based contraction to the high concentration side or reduces maximum contraction by AII, a shifted width of the dose-response curve before and after the addition of each test drug or a maximum contraction inhibiting ratio was calculated.

Structures can show the parent of a compound that is named as a salt.

In the case of `CCCCc1nc(Cl)c(CO)n1Cc1ccc(-c2ccccc2-c2nn[nH]n2)cc1` [Dup 753, reference compound], the “in vivo (IC30 mmHg (mg/kg, iv))” value in test [1] stood at 0.1 mg/kg.

Take `CCc1nc2c(CC)cn(Cc3ccc(-c4ccccc4-c4nnn[nH]4)cc3)n2n1` [Example 52, 2,7-diethyl-5-[[2'-(tetrazol-5-yl)biphenyl-4-yl]methyl]-5H-pyrazolo[1,5-b][1,2,4]triazole]: in test [2], the Kb was 2240 pM. Also, the “in vivo (IC30 mmHg (mg/kg, iv))” value in test [1] worked out at 0.025 mg/kg.

As to `CCc1cn(Cc2ccc(-c3ccccc3-c3nnn[nH]3)cc2)n2nc(C)nc12` [Example 53, 7-ethyl-2-methyl-5-[[2'-(tetrazol-5-yl)biphenyl-4-yl]methyl]-5H-pyrazolo[1,5-b][1,2,4]triazole], in test [2], the Kb was 3160 pM. In test [1], the “in vivo (IC30 mmHg (mg/kg, iv))” value worked out at 0.01 mg/kg.

On to `CCc1nc2c(C(C)C)cn(Cc3ccc(-c4ccccc4-c4nnn[nH]4)cc3)n2n1` [Example 57, 2-ethyl-7-isopropyl-5-[[2'-(tetrazol-5-yl)biphenyl-4-yl]methyl]-5H-pyrazolo[1,5-b][1,2,4]triazole], for which, in test [2], the Kb is 3020 pM. Further, the “in vivo (IC30 mmHg (mg/kg, iv))” value in test [1] is reported as 0.04 mg/kg.

On to `CCc1nc2c(CC)c(COC)n(Cc3ccc(-c4ccccc4-c4nnn[nH]4)cc3)n2n1` [Example 95, 2,7-diethyl-6-methoxymethyl-5-[[2'-(tetrazol-5-yl)biphenyl-4-yl]methyl]-5H-pyrazolo[1,5-b][1,2,4]triazole], for which the Kb in test [2] was 1410 pM. The “in vivo (IC30 mmHg (mg/kg, iv))” value in test [1] stood at 0.06 mg/kg.

As to `CCc1nc2c(CC)c(C=O)n(Cc3ccc(-c4ccccc4-c4nn[nH]n4)cc3)n2n1` [Example 96, 2,7-diethyl-5-[[2'-(tetrazol-5-yl)biphenyl-4-yl]methyl]-5H-pyrazolo[1,5-b][1,2,4]triazole-6-carboxyaldehyde], the Kb in test [2] was 692 pM. The “in vivo (IC30 mmHg (mg/kg, iv))” value in test [1] came out at 0.02 mg/kg.

As to `CCc1nc2c(CC)c(CO)n(Cc3ccc(-c4ccccc4-c4nn[nH]n4)cc3)n2n1` [Example 98], the Kb in test [2] was 955 pM. The “in vivo (IC30 mmHg (mg/kg, iv))” value in test [1] was 0.02 mg/kg.

On to `CCc1nc2c(CC)c(C(=O)O)n(Cc3ccc(-c4ccccc4-c4nn[nH]n4)cc3)n2n1` [Example 99, 2,7-diethyl-5-[[2'-(tetrazol-5-yl)biphenyl-4-yl]methyl]-5H-pyrazolo[1,5-b][1,2,4]'triazole-6-carbonic acid], for which the IC50 in test [2] was 490 pM.

With `CCc1nc2c(CC)cn(Cc3ccc(-c4ccccc4-c4nn[nH]n4)cc3)n2n1` [Example 100, 2,7-diethyl-5-[[2'-(tetrazol-5-yl)biphenyl-4-yl]methyl]-5H-pyrazolo[1,5-b][1,2,4]triazole potassium salt], the Kb in test [2] is 1550 pM.

On to `CCOC(=O)c1c(CC)c2nc(CC)nn2n1Cc1ccc(-c2ccccc2-c2nnn[nH]2)cc1` [Example 101, ethyl 2,7-diethyl-5-[[2'-(tetrazol-5-yl)biphenyl-4-yl]methyl]-5H-pyrazolo[1,5-b][1,2,4] triazole-6-carboxylate], for which the Kb in test [2] is 562 pM.

Regarding `CCc1nc2c(CC)c(C(=O)OC)n(Cc3ccc(-c4ccccc4-c4nn[nH]n4)cc3)n2n1` [Example 102, methyl 2,7-diethyl-5-[[2'-(tetrazol-5-yl)biphenyl-4-yl]methyl]-5H-pyrazolo[1,5-b][1,2,4]triazole-6-carboxylate sodium salt], the Kb in test [2] is 724 pM.

For `CCOC(=O)OC(C)OC(=O)c1c(CC)c2nc(CC)nn2n1Cc1ccc(-c2ccccc2-c2nnn[nH]2)cc1` (stereo not drawn) [Example 105, 1-ethoxycarbonyloxyethyl 2,7-diethyl-5-[[2'-(tetrazol-5-yl)biphenyl-4-yl]methyl]-5H-pyrazolo[1,5-b][1,2,4]triazole-6-carboxylate], the IC50 in test [2] is 933 pM.
